Measurements reported in patent publication US8937065B2, “Compositions and methods for modulating a kinase” (Clevexel Pharma, priority 2011, dated 2015).

Experiments:
[1] = system: collagen induced arthritis (CIA) in DBA/1 mice; experiment: Mouse collagen induced arthritis (CIA) slow-progressing disease model; type: in vivo; conditions: 100 mg/kg IP QD, 20 days, mild CIA model, n=10, P<0.05
Description: Compounds of the invention were evaluated in mouse collagen induced arthritis (CIA) models. There are several known CIA models as outlined in the table below:
The CIA studies utilized a mild (slow-progressing) disease model. The DBA/1 mice developed collagen induced arthritis (CIA) after immunization with Hooke Kit™ chicken collagen/Complete Freund's Adjuvant (CFA) emulsion (EK-0210), followed by a booster dose of Hooke Kit™ chicken collagen/Incomplete Freund's Adjuvant (IFA) emulsion (EK-0211). Each study used 54 female DBA/1 mice (Taconic Farms model DBA1BO, 9 weeks old) later assigned to […] with 10 mice per group. 4 mice were not immunized nor treated, and they were left as naïve controls group for possible histological analysis. The other 50 mice were treated therapeutically.
One study comprises group 1—Vehicle, group 2—CP-690550, 30 mg/kg PO QD, group 3—R-788, 60 mg/kg PO QD and group 4—compound 7, 100 mg/kg, IP QD. The other study comprises group 1—Vehicle, group 2—compound 7, 15 mg/kg PO QD, group 3—compound 7, 30 mg/kg PO QD and group 4—compound 7, 100 mg/kg, IP QD.
Mice were first immunized with collagen/CFA emulsion on Day 0 after being acclimated for at least 7 days. The procedure of immunization was as follows: A mouse was immobilized using a restrainer. The tail was cleaned with 70% ethanol and the area was wiped dry with sterile gauze. […]

[2] = system: Daudi cells; experiment: Proliferation of Daudi cells (Cell Titer-Glo, 96 h); conditions: Homo sapiens, B cells, outcome-based, read-out: IC50 Proliferation Daudi cells (Burkitt's Lymphoma)
Description: Growth inhibitory activity against the human tumor cell lines, RS4; 11 and Daudi was determined using Promega's Cell Titer-Glo® assay. The human tumor cells were placed in a 96-well microculture plate (Costar white, flat bottom #3917) in a total volume of 90 μL/well. After 24 hours of incubation in a humidified incubator at 37° C. with 5% CO2 and 95% air, […] serially diluted test agents in growth medium were added to each well. After 96 total hours of culture in a CO2 incubator, the plated cells and Cell Titer-Glo® (Promega # G7571) reagents were brought to room temperature to equilibrate for 30 minutes. 100 μL of Cell Titer-Glo® reagent was added to each well. The plate was shaken for 2 minutes and then left to equilibrate for 10 minutes before reading luminescence on the Tecan GENios microplate reader.
Percent inhibition of cell growth was calculated relative to untreated control wells. All tests were performed in duplicate at each concentration level. The IC50 value for the test agents was estimated using Prism 3.03 by curve-fitting the data using the following four parameter-logistic equation: […]

[3] = Protein binding; type: in vitro ADME

## O=C(CN1CCOCC1)Nc1cccc(-c2nc(-c3c[nH]c(C(=O)N4CCCC4)c3)cs2)c1 [7A, 2-morpholino-N-(3-(4-(5-(pyrrolidine-1-carbonyl)-1H-pyrrol-3-yl)thiazol-2-yl)phenyl)acetamide]
[1]
  CIA score on the last day vs. combined vehicle: reduction in CIA score
[2]
  IC50: 159 nM
[3]
  fraction unbound: 0.02
